The numbers were not newly measured in patent publication US11679093B2, “2-naphthimidamides, analogues thereof, and methods of treatment using same” (priority 2018, dated 2023), which cites them from elsewhere.

The data set concerns Influenza A virus (IAV). Particulars: fully differentiated mucociliated bronchiolar epithelium isolated from multiple human donors.

For the compound `N=C(N)Nc1ccc(C(=O)Oc2ccc3cc(C(=N)N)ccc3c2)cc1` [Nafamostat, 6-carbamimidoylnaphthalen-2-yl 4-guanidinobenzoate], the antiviral activity entry is “exhibit antiviral activity”.
